Among the data in PubChem BioAssay (NCI) are TGI and GI50 values, retold here.

Assay in all cases: NCI anticancer screen, dose series, 48 h
Assay [1] concerns UACC-62 melanoma.
Assay [2] has as its system MDA-N.
For assay [3], the system named is COLO 205 colon.
Assay [4] deals with SK-MEL-28 melanoma.
The test system of assay [5] is NCI-H23 lung.
Assay [6] deals with A549 NSCLC.
Assay [7] deals with NCI-H460 lung.
The subject of assay [8] is ACHN renal.
Assay [9] relates to MOLT-4 leukemia.

The structures appear in SMILES notation. Values joined by “and” are separate entries in the source; they are usually repeats but may differ in a detail not shown here. Equal entries are not always repeated.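 Dose response: 5 concentrations. Exposure: 48 h. Format: 96-well plates. Endpoint: linear interpolation; highest concentration if not reached. The concentration for 50% growth inhibition is given as GI50. TGI: concentration producing complete growth inhibition.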

On to `CCOC(=O)c1cc2nc3ccccc3c(=O)n2c2ccccc12`, for which the TGI in assay [1], in [2], in [3], in [4], in assay [5] and in assay [6] was above 10 µM in each case. The TGI in assay [7] and in [8] was above 10 µM each time.
`Cc1ccc(S(=O)(=O)Nc2ccccc2C(=O)c2ccc(C)c(C)c2)cc1`: the TGI in assay [1], in [2], in assay [3], in assay [4], in [5] and in [6] was above 100 µM in each case. In addition, the TGI in [7] and in assay [8] was above 100 µM in each case.
Turning to `COc1c(Cl)c(=O)oc2ccc(Cl)cc12`, the TGI in assay [9], in [1], in [2], in assay [3], in assay [4] and in assay [5] was above 100 µM throughout. Further, the TGI in assay [6], in assay [7] and in [8] was above 100 µM each time.
As to `NS(=O)(=O)c1cc(Br)c(N=Nc2ccc(O)c3ncccc23)c(Br)c1`, the TGI was above 100 µM in assay [9]; 68.8 µM in assay [1]; above 100 µM in assay [2]; above 100 µM in [3]; above 100 µM in [4]; above 100 µM in [5]. Besides, the TGI is 60.7 µM in [6], above 100 µM in [7] and 43.9 µM in [8].
Regarding `COc1cc(NCc2ccc3oc(=O)c(-c4ccccc4)nc3c2)cc(OC)c1OC`, the TGI in assay [9], in assay [1], in [2], in assay [3], in [4] and in [5] was above 10 µM in each case. The TGI in assay [6], in assay [7] and in assay [8] was above 10 µM throughout.
Regarding `O=c1[nH]c(Nc2nc3ccccc3[nH]2)nc(O)c1-c1ccccc1`, the TGI in assay [1], in assay [2], in assay [3], in assay [4], in assay [5] and in [6] was above 100 µM throughout. For the same compound, the TGI in assay [7] and in [8] was above 100 µM in each case.
For `Cc1ccccc1S(=O)(=O)OC1NS(=O)(=O)c2ccccc21` (stereo not given), the TGI in assay [9], in [1], in assay [2], in assay [3], in [4] and in assay [5] was above 100 µM in each case. Also, the TGI in [6], in assay [7] and in assay [8] was above 100 µM throughout.
With `NC1(C(=O)OCc2ccccc2)CCCC1`, the TGI in assay [9] amounted to 83 µM; in assay [1] it was 37 µM; in assay [2], 49.6 µM; in assay [3] it was 76.7 µM; in [4], 48.7 µM; in [5], 43.6 µM. For the same compound, the TGI is above 100 µM in [6], above 100 µM in assay [7] and 34.1 µM in [8].
Turning to `CCCC(=O)OC1CC(n2cc(F)c(=O)[nH]c2=O)OC1COP(=O)(OCC(Cl)(Cl)Cl)OCC(Cl)(Cl)Cl` (stereo not given), the TGI in [9] is above 62.1 µM; in [1] it was above 100 µM; in assay [2] it was above 31.6 µM; in assay [3] it was 59 µM; in [4] it was above 62.4 µM; in assay [5] it was above 100 µM. For the same compound, the TGI in assay [6] is above 94.6 µM; in assay [7] it was 28.8 µM; in [8], above 96 µM.
For `COc1cc(OC)cc(-c2cc(=O)c3c(OC)c(OC)c(OC)c(OC)c3o2)c1`, the TGI was above 100 µM in [9]; above 100 µM in assay [1]; above 100 µM in [2]; 30.6 µM in assay [3]; above 100 µM in assay [4]; above 100 µM in assay [5]. Further, the TGI in assay [6], in [7] and in assay [8] was above 100 µM each time.
In the case of `C=C(Br)C(C)(Br)CCC(Br)C(C)(C)Cl` (stereo not given), the TGI came to 24.5 µM in assay [9]; 40.7 µM in [1]; 39.8 µM in assay [2]; 33.8 µM in assay [3]; 33.3 µM in assay [4]; 36.5 µM in assay [5]. Also, the TGI in [6] was above 100 µM; in assay [7] it was 36.6 µM; in [8], 35.6 µM.
Consider `O=[N+]([O-])C(/C=C(\Cl)n1nnc2ccccc21)=C(/Cl)n1nnc2ccccc21`, for which the TGI in assay [9], in assay [1], in assay [2], in assay [3], in assay [4] and in [5] was above 100 µM each time. The TGI in [6], in assay [7] and in [8] was above 100 µM in each case.
For `CN(C)CCSC1=Nc2ccc(Cl)cc2C(c2ccccc2Cl)=NC1`, the TGI in assay [9] was > 100 µM and 94.3 µM; in [1] it was 19.1 µM and > 100 µM; in assay [2] it was 25.8 µM and 89.1 µM; in assay [3], 27.3 µM and > 100 µM; in assay [4], 34.1 µM and > 100 µM; in assay [5], 30.2 µM and > 100 µM. In addition, the TGI was 31.7 µM and > 100 µM in assay [6]; 30.7 µM and > 100 µM in assay [7]; 26.9 µM and > 100 µM in [8]. The GI50 is 11.8 µM and 25.1 µM in assay [2]; 14 µM and 74.2 µM in assay [3]; 19.4 µM and > 100 µM in assay [4]; 15 µM and 97.1 µM in assay [5]; 13.8 µM and 88.8 µM in assay [6]; 14.9 µM and 68.1 µM in assay [7]. For the same compound, the GI50 in assay [8] was 14 µM and > 100 µM.
Take `CC1(C)C2CCC(=O)C1CC2` (stereo not given): the TGI in [9], in assay [1], in [2], in [3], in assay [4] and in assay [5] was above 100 µM throughout. The TGI in assay [6], in assay [7] and in [8] was above 100 µM in each case.
